PubChem BioAssay AID743508 (Broad Institute, 2014)
Calls of active or inactive are those of the source. The rule behind the calls is not given here.

biological target: Drosophila melanogaster bursicon receptor LGR2 (rickets); test: inhibition of bursicon-stimulated LGR2 cAMP signaling – cell-based, HEK293, CRE-luciferase, beta-gal normalized, dry powder, set 2, dose response (AID 743508); details: HEK293 LGR2 CRE-luciferase cAMP reporter, antagonist

SMILES | IC50
C[C@H](CO)N1C[C@H](C)[C@H](CN(C)C(=O)Cc2ccccc2)OCCCC[C@H](C)Oc2ccc(NC(=O)Nc3ccc(C(F)(F)F)cc3)cc2C1=O | > 35 µM (inactive)
C[C@H](CO)N1C[C@H](C)[C@H](CN(C)C(=O)Nc2ccc3c(c2)OCO3)OCCCC[C@H](C)Oc2ccc(NC(=O)C3CCCCC3)cc2C1=O | < 35 µM
C[C@H](CO)N1C[C@H](C)[C@H](CN(C)C(=O)Nc2ccc(C(F)(F)F)cc2)OCCCC[C@H](C)Oc2ccc(NC(=O)CCC(F)(F)F)cc2C1=O | < 35 µM
COc1ccc(NC(=O)Nc2ccc3c(c2)C(=O)N([C@H](C)CO)C[C@H](C)[C@H](CN(C)CC2CCCCC2)OCCCC[C@H](C)O3)cc1 | > 35 µM (inactive)
C[C@H](CO)N1C[C@H](C)[C@H](CN(C)C(=O)Nc2ccccc2)OCCCC[C@H](C)Oc2ccc(NC(=O)CCC(F)(F)F)cc2C1=O | < 35 µM
COc1ccc(NC(=O)N(C)C[C@@H]2OCCCC[C@H](C)Oc3ccc(NC(=O)C4CCCCC4)cc3C(=O)N([C@H](C)CO)C[C@@H]2C)cc1 | < 35 µM
COc1ccc(S(=O)(=O)N(C)C[C@@H]2OCCCC[C@H](C)Oc3ccc(NS(=O)(=O)c4ccc(Cl)cc4)cc3C(=O)N([C@@H](C)CO)C[C@@H]2C)cc1 | < 35 µM
C[C@H](CO)N1C[C@H](C)[C@H](CN(C)C(=O)Nc2ccc3c(c2)OCO3)OCCCC[C@H](C)Oc2ccc(NC(=O)NC3CCCCC3)cc2C1=O | < 35 µM
C[C@H](CO)N1C[C@H](C)[C@H](CN(C)C(=O)Nc2ccccc2)OCCCC[C@H](C)Oc2ccc(NC(=O)NC3CCCCC3)cc2C1=O | < 35 µM
C[C@@H]1CN([C@@H](C)CO)C(=O)c2cc(NC(=O)c3ccncc3)ccc2O[C@@H](C)CCCCO[C@H]1CN(C)C(=O)Nc1cccc2ccccc12 | > 35 µM (inactive)
C[C@H](CO)N1C[C@H](C)[C@H](CN(C)C(=O)Nc2cccc3ccccc23)OCCCC[C@H](C)Oc2ccc(NC(=O)c3ccccc3)cc2C1=O | < 35 µM
C[C@H]1CCCCO[C@@H](CN(C)S(=O)(=O)c2ccc(Cl)cc2)[C@@H](C)CN([C@@H](C)CO)C(=O)c2cc(NC(=O)NC3CCCCC3)ccc2O1 | < 35 µM
C[C@H](CO)N1C[C@H](C)[C@H](CN(C)C(=O)Nc2ccccc2)OCCCC[C@H](C)Oc2ccc(NC(=O)Nc3ccccc3)cc2C1=O | < 35 µM
COc1ccc(S(=O)(=O)N(C)C[C@@H]2OCCCC[C@H](C)Oc3ccc(NS(=O)(=O)c4ccc(F)cc4)cc3C(=O)N([C@@H](C)CO)C[C@@H]2C)cc1 | < 35 µM
Cc1ccc(S(=O)(=O)Nc2ccc3c(c2)C(=O)N([C@H](C)CO)C[C@@H](C)[C@H](CN(C)S(=O)(=O)c2cccs2)OCCCC[C@@H](C)O3)cc1 | > 35 µM (inactive)
C[C@H](CO)N1C[C@H](C)[C@H](CN(C)C(=O)Nc2ccc(C(F)(F)F)cc2)OCCCC[C@H](C)Oc2ccc(NC(=O)NC3CCCCC3)cc2C1=O | < 35 µM
C[C@H](CO)N1C[C@H](C)[C@H](CN(C)C(=O)Nc2cccc3ccccc23)OCCCC[C@H](C)Oc2ccc(NC(=O)NC3CCCCC3)cc2C1=O | < 35 µM
C[C@H]1CCCCO[C@H](CN(C)C(=O)Nc2cccc3ccccc23)[C@@H](C)CN([C@@H](C)CO)C(=O)c2cc(NS(=O)(=O)c3cn(C)cn3)ccc2O1 | > 35 µM (inactive)
C[C@H](CO)N1C[C@H](C)[C@H](CN(C)C(=O)Nc2ccccc2)OCCCC[C@H](C)Oc2ccc(NC(=O)Nc3ccc4c(c3)OCO4)cc2C1=O | < 35 µM

SMILES | IC50
C[C@H]1CCCCO[C@@H](CN(C)C(=O)Nc2ccc(F)cc2)[C@@H](C)CN([C@@H](C)CO)C(=O)c2cc(NC(=O)C3CCCCC3)ccc2O1 | < 35 µM
C[C@H](CO)N1C[C@H](C)[C@H](CN(C)C(=O)Nc2ccc(F)cc2)OCCCC[C@H](C)Oc2ccc(NC(=O)Nc3ccccc3)cc2C1=O | < 35 µM
C[C@@H]1CN([C@@H](C)CO)C(=O)c2cc(NS(C)(=O)=O)ccc2O[C@@H](C)CCCCO[C@@H]1CN(C)Cc1ccc(C(F)(F)F)cc1 | > 35 µM (inactive)
CC(C)NC(=O)Nc1ccc2c(c1)C(=O)N([C@H](C)CO)C[C@@H](C)[C@H](CN(C)S(C)(=O)=O)OCCCC[C@H](C)O2 | > 35 µM (inactive)
C[C@H](CO)N1C[C@H](C)[C@H](CN(C)C(=O)Nc2cccc3ccccc23)OCCCC[C@H](C)Oc2ccc(NC(=O)CCC(F)(F)F)cc2C1=O | < 35 µM
Cc1noc(C)c1S(=O)(=O)Nc1ccc2c(c1)C(=O)N([C@H](C)CO)C[C@H](C)[C@H](CN(C)C(=O)Nc1ccc(F)cc1)OCCCC[C@@H](C)O2 | > 35 µM (inactive)
C[C@H](CO)N1C[C@H](C)[C@H](CN(C)C(=O)Nc2ccc(F)cc2)OCCCC[C@H](C)Oc2ccc(NC(=O)Nc3ccc(F)cc3)cc2C1=O | < 35 µM
COc1ccc(S(=O)(=O)Nc2ccc3c(c2)C(=O)N([C@@H](C)CO)C[C@H](C)[C@@H](CN(C)C(=O)Nc2cccc4ccccc24)OCCCC[C@H](C)O3)cc1 | > 35 µM (inactive)
C[C@H](CO)N1C[C@H](C)[C@H](CN(C)C(=O)Nc2ccc(F)cc2)OCCCC[C@H](C)Oc2ccc(NC(=O)NC3CCCCC3)cc2C1=O | < 35 µM
C[C@H]1CCCCO[C@@H](CN(C)C(=O)Nc2ccc(C(F)(F)F)cc2)[C@@H](C)CN([C@@H](C)CO)C(=O)c2cc(NC(=O)CCC(F)(F)F)ccc2O1 | < 35 µM
C[C@H]1CCCCO[C@@H](CN(C)C(=O)Nc2ccc3c(c2)OCO3)[C@@H](C)CN([C@@H](C)CO)C(=O)c2cc(NC(=O)NC3CCCCC3)ccc2O1 | < 35 µM
COc1ccc(S(=O)(=O)Nc2ccc3c(c2)C(=O)N([C@@H](C)CO)C[C@@H](C)[C@H](CN(C)C(=O)Nc2cccc4ccccc24)OCCCC[C@H](C)O3)cc1 | > 35 µM (inactive)
COc1ccc(NC(=O)N(C)C[C@@H]2OCCCC[C@H](C)Oc3ccc(NC(=O)NC4CCCCC4)cc3C(=O)N([C@H](C)CO)C[C@@H]2C)cc1 | < 35 µM
COc1ccc(S(=O)(=O)Nc2ccc3c(c2)C(=O)N([C@H](C)CO)C[C@H](C)[C@H](CN(C)S(=O)(=O)c2ccc(F)cc2)OCCCC[C@@H](C)O3)cc1 | > 35 µM (inactive)
C[C@H](CO)N1C[C@H](C)[C@H](CN(C)C(=O)Nc2cccc3ccccc23)OCCCC[C@H](C)Oc2ccc(NC(=O)C3CCCCC3)cc2C1=O | < 35 µM
C[C@H]1CCCCO[C@@H](CN(C)C(=O)Nc2ccccc2)[C@@H](C)CN([C@@H](C)CO)C(=O)c2cc(NC(=O)NC3CCCCC3)ccc2O1 | < 35 µM
C[C@H](CO)N1C[C@H](C)[C@H](CN(C)C(=O)Nc2ccc(F)cc2)OCCCC[C@H](C)Oc2ccc(NC(=O)C3CCCCC3)cc2C1=O | < 35 µM
C[C@H](CO)N1C[C@H](C)[C@H](CN(C)C(=O)Nc2ccccc2)OCCCC[C@H](C)Oc2ccc(NC(=O)C3CCCCC3)cc2C1=O | < 35 µM
C[C@@H]1CCCCO[C@H](CN(C)CC2CCCCC2)[C@H](C)CN([C@H](C)CO)C(=O)c2cc(NS(=O)(=O)c3ccccc3)ccc2O1 | < 35 µM
